Reference: patent publication US9682969B2, “Phthalazinone compounds and methods for the treatment of cystic fibrosis” (FLATLEY DISCOVERY LAB, LLC, priority 2013, dated 2017)
pEC50: −log10 of the molar value.

Target: human F508del CFTR (Homo sapiens (Human), UniProt P13569, DEL508-508)
Assay: CFTR-YFP High Throughput Assay (YFP flux assay, FRT cells)
Assay type: cell-based
Settings: FRT cells expressing human F508del CFTR and YFP
Procedure: This protocol is designed to selectively screen small molecule compounds for F508del CFTR corrector activities in the YFP (yellow fluorescent protein) flux assay. In this protocol, the cells are incubated with testing compounds for 24 hours, washed with PBS, stimulated with forskolin and a standard potentiator, and fluorescence in each plate well is measured kinetically read on a 384-well plate reader, such as the Hamamatsu FDSS-6000.
YFP fluorescence intensity values are acquired at high speed before and after iodide buffer is injected to the assay cells. Iodide enters the cells via active CFTR channels in the plasma membrane, and quenches the YFP fluorescence. The rate of fluorescence quenching is proportionate to the total CFTR activity in the cell membrane. F508del CFTR correctors increase the number of CFTR molecules in the testing cell plasma membrane, and thereby accelerate YFP quenching.
This method was initially developed for bench top plate readers (Galietta, J, Jayaraman, S and Verkman, A S. Cell-based assay for high-throughput quantitative screening of CFTR chloride transport agonists. Am. J. Physiol. Cell Physiol. (2001), 281: C173), and was adapted to the HTS format (Sui J, Cotard S, Andersen J, Zhu P, Staunton J, Lee M, Lin S. Optimization of a Yellow fluorescent protein-based iodide influx high-throughput screening assay for cystic fibrosis transmembrane conductance regulator (CFTR) modulators. Assay Drug Dev Technol. (2010), 8: 656-668).
Fisher Rat Thyroid (FRT) cells stably expressing both human F508del CFTR and a halide-sensitive yellow fluorescent protein (YFP-H148Q/I152L 25,22) (Galietta et al. Am. J. Physiol Cell Physiol 281(5), C1734, 2001) were cultured on plastic surface in Coon's modified Ham's F12 medium supplemented with FBS 10%, L-glutamine 2 mM, penicillin 100 U/ml, and streptomycin […]. G418 (0.75-1.0 mg/ml) and zeocin (3.2 ug/ml) were used for selection of FRT cells expressing F508del CFTR and YFP. For primary screening, FRT cells were plated into 384-well black wall, transparent bottom microtiter plates (Costar; Corning Inc.) at a cell density of 20,000-40,000 per well. Test compound was applied to the cells at varying concentrations ranging from 2 nM-40 μM in either a 2-fold or 3-fold dilution series. Cells were incubated in a cell culture incubator at 37° C. with 5% CO2 for 24-26 h. Assay plates were washed with DPBS media (Thermo, cat# SH30028.02) to remove unbound cells and compound. Stimulation media (25 μL) containing 20 μM Forskolin & 30 μM P3 [6-(Ethyl-phenyl-sulfonyl)-4-oxo-1,4-dihydro-quinoline-3-carboxylic acid 2-methoxy-benzylamide] in Hams F-12 coon's modified media was added to the plate wells and incubated at room temperature for 60-120 min. 25 μL of HEPES-PBS-I buffer (10 mM HEPES, 1 mM MgCl2, 3 mM KCl, 1 mM CaCl2, 150 mM NaI) was then added and fluorescence quench curves (Excitation 500 nm/Emission 540 nm; exposure 136 ms) were immediately recorded on an FDSS-6000 plate reader (Hamamatsu). Quench rates were derived from least squares fitting of the data as described by Sui et al (2010).
This protocol is designed to selectively screen small molecule compounds for F508del CFTR potentiator activities in the YFP (yellow fluorescent protein) flux assay. Such compounds act acutely to stimulate CFTR already expressed on the membrane surface. In this protocol, the cells are incubated at 27° C. for 24 hours to homogeneously boost F508del CFTR expression in the cell membrane (low temperature correction), washed with PBS, treated with test compound, and CFTR activity is stimulated with forskolin for 1-2 hr. Measurement of ion flux is initiated by addition of iodide-containing buffer, and YFP quenching is kinetically recorded using a 384-well plate reader, such as the Hamamatsu FDSS-6000.
YFP fluorescence intensity values are acquired at high speed over a 1 min time course before and after iodide buffer is injected to the assay cells. […]

human F508del CFTR, sequence (P13569 other isoform, or with tags, fused parts or gaps del F508-F508): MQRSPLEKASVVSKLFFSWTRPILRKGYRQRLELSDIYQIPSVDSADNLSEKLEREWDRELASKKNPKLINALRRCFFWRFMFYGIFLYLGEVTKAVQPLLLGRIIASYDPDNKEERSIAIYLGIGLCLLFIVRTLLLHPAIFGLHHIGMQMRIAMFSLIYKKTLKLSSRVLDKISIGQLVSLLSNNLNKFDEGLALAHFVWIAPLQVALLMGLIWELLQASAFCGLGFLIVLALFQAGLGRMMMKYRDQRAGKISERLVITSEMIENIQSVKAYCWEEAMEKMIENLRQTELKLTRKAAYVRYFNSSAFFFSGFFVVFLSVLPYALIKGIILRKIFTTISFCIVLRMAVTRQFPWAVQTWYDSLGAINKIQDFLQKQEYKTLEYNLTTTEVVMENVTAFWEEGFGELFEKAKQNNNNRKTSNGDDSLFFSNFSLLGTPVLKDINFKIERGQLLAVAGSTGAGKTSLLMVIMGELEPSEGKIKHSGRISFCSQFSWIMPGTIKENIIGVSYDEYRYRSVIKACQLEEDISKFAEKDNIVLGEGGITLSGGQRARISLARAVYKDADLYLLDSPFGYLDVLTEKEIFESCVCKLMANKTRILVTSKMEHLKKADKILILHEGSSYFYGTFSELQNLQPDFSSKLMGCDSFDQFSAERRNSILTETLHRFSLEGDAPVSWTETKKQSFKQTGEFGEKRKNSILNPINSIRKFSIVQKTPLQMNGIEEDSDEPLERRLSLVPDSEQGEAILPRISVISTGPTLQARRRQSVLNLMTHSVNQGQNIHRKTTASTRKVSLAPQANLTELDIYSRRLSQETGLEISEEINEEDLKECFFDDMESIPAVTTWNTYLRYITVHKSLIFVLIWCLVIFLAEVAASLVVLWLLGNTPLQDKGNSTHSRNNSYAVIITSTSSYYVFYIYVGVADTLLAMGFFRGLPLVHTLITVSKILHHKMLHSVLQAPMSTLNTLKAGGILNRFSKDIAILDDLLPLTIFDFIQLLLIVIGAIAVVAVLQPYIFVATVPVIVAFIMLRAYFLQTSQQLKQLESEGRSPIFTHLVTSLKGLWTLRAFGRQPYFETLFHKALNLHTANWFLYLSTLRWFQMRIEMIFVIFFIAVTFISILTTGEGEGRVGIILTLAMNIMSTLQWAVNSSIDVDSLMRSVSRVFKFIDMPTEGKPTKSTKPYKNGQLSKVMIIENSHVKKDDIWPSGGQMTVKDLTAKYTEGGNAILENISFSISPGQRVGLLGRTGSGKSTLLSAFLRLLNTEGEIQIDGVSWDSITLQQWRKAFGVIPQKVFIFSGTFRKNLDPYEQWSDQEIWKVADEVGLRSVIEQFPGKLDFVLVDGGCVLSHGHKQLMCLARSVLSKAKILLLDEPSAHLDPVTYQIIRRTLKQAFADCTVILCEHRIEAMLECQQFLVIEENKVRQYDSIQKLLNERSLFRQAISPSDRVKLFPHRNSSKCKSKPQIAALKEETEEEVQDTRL

Cc1nc2ccc(N(C)C(=O)Cn3nc(-c4cccc(F)c4)c4ccc(OC5CCOCC5)cc4c3=O)cc2o1 [Example 27, 2-(4-(3-fluorophenyl)-1-oxo-7-((tetrahydro-2H-pyran-4-yl)oxy)phthalazin-2(1H)-yl)-N-methyl-N-(2-methylbenzo[d]oxazol-6-yl)acetamide]
pEC50: > 5.00

CCOc1ccc2c(-c3cccc(Cl)c3)nn(CC(=O)N(C)c3ccc4nc(C)oc4c3)c(=O)c2c1 [Example 19, 2-(4-(3-chlorophenyl)-7-ethoxy-1-oxophthalazin-2(1H)-yl)-N-methyl-N-(2-methylbenzo[d]oxazol-6-yl)acetamide]
pEC50: > 5.00

Cc1nc2ccc(N(C)C(=O)Cn3nc(-c4cccc(Cl)c4)c4ccc(OC5CCOCC5)cc4c3=O)cc2o1 [Example 29, 2-(4-(3-chlorophenyl)-1-oxo-7-((tetrahydro-2H-pyran-4-yl)oxy)phthalazin-2(1H)-yl)-N-methyl-N-(2-methylbenzo[d]oxazol-6-yl)acetamide]
pEC50: > 5.00

COc1ccc2c(-c3cccc(Cl)c3)nn(CC(=O)N(C)c3ccc4nc(C)oc4c3)c(=O)c2c1 [Example 4, 2-(4-(3-chlorophenyl)-7-methoxy-1-oxophthalazin-2(1H)-yl)-N-methyl-N-(2-methylbenzo[d]oxazol-6-yl)acetamide]
pEC50: > 5.00

Cc1nc2ccc(N(C)C(=O)Cn3nc(-c4cccc(F)c4)c4ccccc4c3=O)cc2o1 [Example 2, 2-(4-(3-fluorophenyl)-1-oxophthalazin-2(1H)-yl)-N-methyl-N-(2-methylbenzo[d]oxazol-6-yl)acetamide]
pEC50: > 5.00

[2H]C([2H])([2H])N(C(=O)Cn1nc(-c2cccc(Cl)c2)c2ccc(OC(C)C)cc2c1=O)c1ccc2nc(C)oc2c1 [Example 20, 2-(4-(3-chlorophenyl)-7-isopropoxy-1-oxophthalazin-2(1H)-yl)-N-(methyl-d3)-N-(2-methylbenzo[d]oxazol-6-yl)acetamide]
pEC50: > 5.00

Cc1nc2ccc(N(C)C(=O)Cn3nc(-c4cccc(Cl)c4)c4ccc(OC5CCCCC5)cc4c3=O)cc2o1 [Example 26, 2-(4-(3-chlorophenyl)-7-(cyclohexyloxy)-1-oxophthalazin-2(1H)-yl)-N-methyl-N-(2-methylbenzo[d]oxazol-6-yl)acetamide]
pEC50: > 5.00

COc1cc2c(=O)n(CC(=O)N(C)c3ccc4nc(C)oc4c3)nc(-c3cccc(Cl)c3)c2cc1Cl [Example 11, 2-(6-chloro-4-(3-chlorophenyl)-7-methoxy-1-oxophthalazin-2(1H)-yl)-N-methyl-N-(2-methylbenzo[d]oxazol-6-yl)acetamide]
pEC50: > 5.00

CCOc1cc2c(=O)n(CC(=O)N(C)c3ccc4nc(C)oc4c3)nc(-c3cccc(F)c3)c2cc1Cl [Example 30, 2-(6-chloro-7-ethoxy-4-(3-fluorophenyl)-1-oxophthalazin-2(1H)-yl)-N-methyl-N-(2-methylbenzo[d]oxazol-6-yl)acetamide]
pEC50: > 5.00

COc1ccc2c(-c3cccc(F)c3)nn(CC(=O)N(C)c3ccc4nc(C)oc4c3)c(=O)c2c1 [Example 3, 2-(4-(3-fluorophenyl)-7-methoxy-1-oxophthalazin-2(1H)-yl)-N-methyl-N-(2-methylbenzo[d]oxazol-6-yl)acetamide]
pEC50: > 5.00

[2H]C([2H])([2H])N(C(=O)Cn1nc(-c2cccc(Cl)c2)c2ccc(OC)cc2c1=O)c1ccc2nc(C)oc2c1 [Example 6, 2-(4-(3-chlorophenyl)-7-methoxy-1-oxophthalazin-2(1H)-yl)-N-(methyl-d3)-N-(2-methylbenzo[d]oxazol-6-yl)acetamide]
pEC50: > 5.00

Cc1nc2ccc(N(C)C(=O)Cn3nc(-c4cccc(Cl)c4)c4ccccc4c3=O)cc2o1 [Example 1, 2-(4-(3-chlorophenyl)-1-oxophthalazin-2(1H)-yl)-N-methyl-N-(2-methylbenzo[d]oxazol-6-yl)acetamide]
pEC50: > 5.00

Cc1nc2ccc(N(C)C(=O)Cn3nc(-c4cccc(Cl)c4)c4ccc(OC(C)C)cc4c3=O)cc2o1 [Example 25, 2-(4-(3-chlorophenyl)-7-isopropoxy-1-oxophthalazin-2(1H)-yl)-N-methyl-N-(2-methylbenzo[d]oxazol-6-yl)acetamide]
pEC50: > 5.00

Cc1nc2ccc(N(C)C(=O)Cn3nc(-c4cccc(F)c4)c4ccc(OC5CCCCC5)cc4c3=O)cc2o1 [Example 28, 2-(7-(cyclohexyloxy)-4-(3-fluorophenyl)-1-oxophthalazin-2(1H)-yl)-N-methyl-N-(2-methylbenzo[d]oxazol-6-yl)acetamide]
pEC50: > 5.00

CCOc1cc2c(=O)n(CC(=O)N(C)c3ccc4nc(C)oc4c3)nc(-c3cccc(Cl)c3)c2cc1Cl [Example 31, 2-(6-chloro-4-(3-chlorophenyl)-7-ethoxy-1-oxophthalazin-2(1H)-yl)-N-methyl-N-(2-methylbenzo[d]oxazol-6-yl)acetamide]
pEC50: > 5.00

Cc1nc2ccc(N(C(=O)Cn3nc(-c4cccc(F)c4)c4ccc(O)cc4c3=O)C3CC3)cc2o1 [Example 14, N-cyclopropyl-2-(4-(3-fluorophenyl)-7-hydroxy-1-oxophthalazin-2(1H)-yl)-N-(2-methylbenzo[d]oxazol-6-yl)acetamide]
pEC50: > 5.00

CCOc1ccc2c(-c3cccc(Cl)c3)nn(CC(=O)N(c3ccc4nc(C)oc4c3)C3CC3)c(=O)c2c1 [Example 18, 2-(4-(3-chlorophenyl)-7-ethoxy-1-oxophthalazin-2(1H)-yl)-N-cyclopropyl-N-(2-methylbenzo[d]oxazol-6-yl)acetamide]
pEC50: > 5.00

CCOc1ccc2c(-c3cccc(F)c3)nn(CC(=O)N(C)c3ccc4nc(C)oc4c3)c(=O)c2c1 [Example 17, 2-(7-ethoxy-4-(3-fluorophenyl)-1-oxophthalazin-2(1H)-yl)-N-methyl-N-(2-methylbenzo[d]oxazol-6-yl)acetamide]
pEC50: > 5.00

[2H]C([2H])([2H])N(C(=O)Cn1nc(-c2cccc(F)c2)c2ccc(OCC)cc2c1=O)c1ccc2nc(C)oc2c1 [Example 22, 2-(7-ethoxy-4-(3-fluorophenyl)-1-oxophthalazin-2(1H)-yl)-N-(methyl-d3)-N-(2-methylbenzo[d]oxazol-6-yl)acetamide]
pEC50: > 5.00

Cc1nc2ccc(N(C)C(=O)Cn3nc(-c4cccc(Cl)c4)c4ccc(OCC5CC5)cc4c3=O)cc2o1 [Example 24, 2-(4-(3-chlorophenyl)-7-(cyclopropylmethoxy)-1-oxophthalazin-2(1H)-yl)-N-methyl-N-(2-methylbenzo[d]oxazol-6-yl)acetamide]
pEC50: > 5.00

COc1ccc2c(-c3cccc(Cl)c3)nn(CC(=O)N(c3ccc4nc(C)oc4c3)C3CC3)c(=O)c2c1 [Example 5, 2-(4-(3-chlorophenyl)-7-methoxy-1-oxophthalazin-2(1H)-yl)-N-cyclopropyl-N-(2-methylbenzo[d]oxazol-6-yl)acetamide]
pEC50: > 5.00

[2H]C([2H])([2H])N(C(=O)Cn1nc(-c2cccc(Cl)c2)c2ccc(OCC3CC3)cc2c1=O)c1ccc2nc(C)oc2c1 [Example 23, 2-(4-(3-chlorophenyl)-7-(cyclopropylmethoxy)-1-oxophthalazin-2(1H)-yl)-N-(methyl-d3)-N-(2-methylbenzo[d]oxazol-6-yl)acetamide]
pEC50: > 5.00

CCOc1ccc2c(-c3cccc(F)c3)nn(CC(=O)N(c3ccc4nc(C)oc4c3)C3CC3)c(=O)c2c1 [Example 21, N-cyclopropyl-2-(7-ethoxy-4-(3-fluorophenyl)-1-oxophthalazin-2(1H)-yl)-N-(2-methylbenzo[d]oxazol-6-yl)acetamide]
pEC50: > 5.00
